Reference: PubChem BioAssay AID1996
Converted amounts (≈) assume the structure as drawn.

Conditions: buffer; pH 7.4; 200.0 µM

Compound | solubility kinetic [µg/mL]
S=c1[nH]cnc2scc(-c3ccc(Cl)cc3)c12 | 0.5 (≈ 1.79 µM)
C=CCNC(=O)C12CCC(C)(C(=O)[C@H]1Br)C2(C)C (stereo not given in full) | > 47.1
CCN(CC)c1ccc(NC(=O)c2ccccc2Br)cc1S(=O)(=O)Nc1ccccc1OC | 0.6 (≈ 1.13 µM)
Fc1ccc(SCCc2ccccn2)cc1 | 7.1 (≈ 30.4 µM)
CC1CC(C)(C)NC(=S)N1CCCC(=O)Nc1ccc(Cl)cc1 (stereo not given) | 36.7 (≈ 104 µM)
N/C(=N\OC(=O)Nc1cccc(C(F)(F)F)c1)c1ccno1 | 18.7 (≈ 59.5 µM)
CN1C(C)(C)CC(NC(=O)c2ccco2)CC1(C)C | > 39.7
COc1cccc(C(=O)OCC(=O)c2[nH]c(C)c(C(C)=O)c2C)c1 | 2.1 (≈ 6.38 µM)
CC(=O)Nc1ccc(NC(=O)c2c([N+](=O)[O-])cnn2C)cc1 | > 45.5
C#CCOc1c(Cl)cc(/C=C2/C(=O)ON=C2C)cc1OCC | 39.4 (≈ 123 µM)
COCCNC(=S)N1CCCC(CO)C1 (stereo not given) | > 34.9
CCCN1C2CCCC1CC(NC(=S)NCCCOCC)C2 (stereo not given) | > 49.1
Cc1n[nH]c(=S)n1-c1ccc(Cl)cc1 | > 33.9
CC(C)Oc1ccc(C(=O)Nc2cccc3cccnc23)cc1 | 1.1 (≈ 3.59 µM)
CCOC(=O)c1sc(Nc2ccc(F)cc2)nc1C | < 0.3
COc1ccccc1C1N=C(c2ccccc2C)NO1 (stereo not given) | 24 (≈ 89.4 µM)
Cc1ccccc1NC(=O)c1cccc(NC(=O)c2ccccc2C(=O)O)c1 | 55.8 (≈ 149 µM)
CCC(=O)c1cn(Cc2ccccc2)c2ccccc12 | 1 (≈ 3.8 µM)
CSc1ncc(CN2CCN(CCC(C)C)C(CCO)C2)cn1 (stereo not given) | 41.7 (≈ 123 µM)
COc1ccc(CC(=O)Nc2cccc3ccccc23)cc1OC | 7.1 (≈ 22.1 µM)

Compound | solubility kinetic [µg/mL]
O=C(Nc1ccc2[nH]c(=O)[nH]c2c1)Nc1ccc(F)cc1F | 3.7 (≈ 12.2 µM)
COc1ccccc1/C=C/c1ccc2cccc(O)c2n1 | 11.2 (≈ 40.4 µM)
COc1cc(/C(C)=N/NC(=O)CSc2nnc(C)s2)ccc1O | > 52.9
CCOc1ccc(NC(=O)NC(=O)N(C(C)C)S(C)(=O)=O)cc1 | 43.1 (≈ 126 µM)
O=C(c1ccccc1)C1CN(Cc2ccccc2)CCC1(O)c1ccccc1 (stereo not given) | 10.4 (≈ 28 µM)
COc1ccccc1C(C)NC(=O)CCNC(=O)c1ccc(Cl)cc1 (stereo not given) | 4.5 (≈ 12.5 µM)
O=c1[nH]c2ccccc2o1 | > 20.3
O=C(Nc1ccc(C2CC2(Cl)Cl)cc1)c1cccc([N+](=O)[O-])c1 (stereo not given) | < 0.4
Cn1c(-c2ccncc2)nc2ccccc21 | > 31.4
O=C(CS(=O)(=O)c1ccc(F)cc1)NCc1ccccc1 | 16.2 (≈ 52.7 µM)
OC(CCNCCc1c[nH]c2ccccc12)C(F)(F)Cl (stereo not given) | > 45.4
O=C(OCC(=O)c1ccc(Cl)cc1Cl)c1ccccn1 | > 46.5
CCOC(=O)c1sc(CS(=O)(=O)c2ccc(Cl)cc2)nc1C | 6.1 (≈ 17 µM)
NC(=Nc1ccccc1)c1ccccc1 | > 29.4
COc1ccc(NC(=O)C2CC(c3c(F)cccc3Cl)=NO2)cc1 (stereo not given) | 40.8 (≈ 117 µM)
Cc1cc(/C=C(\C#N)C(=O)Nc2ccccc2F)c(C)[nH]1 | 0.8 (≈ 2.82 µM)
Cl.Nc1ccc2nc(CCCO)[nH]c2c1 | > 39.6
Cl.O=C(O)C1=CCCNC1 | > 24.5
COC(=O)C(C)N=Cc1ccccc1 (stereo not given) | 21 (≈ 110 µM)

The remaining lines, values ahead:

solubility kinetic [µg/mL] | Compound
32.3 (≈ 97.2 µM) | CCCN1CCC(N2CCN(c3ccc([N+](=O)[O-])cc3)CC2)CC1
31.4 (≈ 88.7 µM) | CCNC(=S)N1CCN(S(=O)(=O)c2ccc(Cl)s2)CC1
32.6 (≈ 141 µM) | CC(=O)c1ccc(NC(=O)C2CCCC2)cc1
14.3 (≈ 62.1 µM) | CCc1ccc(NC(=O)c2cc(C)no2)cc1
> 46 | CCC(C)NC(=O)C1CC(=O)N(CCc2ccc(F)cc2)C1 (stereo not given)
5.7 (≈ 16.8 µM) | Cc1cccc(NC(=O)COC(=O)COc2ccc3c(c2)CCC3)c1
39.5 (≈ 133 µM) | O=C(Cc1ccc([N+](=O)[O-])cc1)N1CCCc2ccccc21
41.2 (≈ 131 µM) | COCCSc1ccccc1C(=O)Nc1cc(C)cc(C)c1
19.7 (≈ 60.5 µM) | COc1ccc(N2CC(NC(=O)Nc3ccccc3)CC2=O)cc1 (stereo not given)
5.9 (≈ 18.1 µM) | O=C(OCc1ccc([N+](=O)[O-])cc1)c1cc(=O)c2ccccc2o1
22.7 (≈ 66.5 µM) | Cc1cccc(NC(=O)N2C3CCCC2CC(NC(=O)C2CC2)C3)c1 (stereo not given)
6.9 (≈ 20.8 µM) | Cc1ccc(NC(=O)COC(=O)CCc2ccccc2)c(Cl)c1
> 45.2 | O=C(NCC1CCCO1)c1ccc(COc2ccccc2)o1 (stereo not given)
> 44.1 | O=C(NCC(O)c1ccc([N+](=O)[O-])cc1)C1=COCCO1 (stereo not given)
3.4 (≈ 8.34 µM) | O=C(CN1c2cccc3cccc(c23)S1(=O)=O)N1CCN(c2ccccc2)CC1
> 52.6 | CC1(C)CC2CC(C)(CN2C(=O)COC(=O)c2cccnc2Cl)C1 (stereo not given)
> 70.1 | COc1ccc(S(=O)(=O)N2CCOCC2)cc1NC(=O)CSc1nnc(C2CC2)n1C
13 (≈ 45.4 µM) | CC1CCc2sc(C(=O)NCc3ccccn3)cc2C1 (stereo not given)
55.4 (≈ 147 µM) | Cc1cc(NC(=O)CSc2ncc(C(=O)O)n2-c2ccc(F)cc2)no1
38.7 (≈ 123 µM) | Cc1cc(C(=O)NCc2ccc3c(c2)OCO3)ccc1[N+](=O)[O-]
> 43.9 | CC(C)c1ccc(NC(=S)NN2CCN(C)CC2)cc1
> 71.3 | CC(C(O)c1ccc(O)cc1)N1CCC(Cc2ccccc2)CC1.O=C(O)C(O)C(O)C(=O)O (stereo not given)
> 47.5 | CCCN1C2CCCC1CC(NC(=O)c1ccccc1OC)C2 (stereo not given)

solubility kinetic [µg/mL] | Compound
32.8 (≈ 80.7 µM) | CCOC(=O)c1ccoc1CN1CCN(S(=O)(=O)c2ccc(C)c(C)c2)CC1
38.1 (≈ 121 µM) | COc1ccc(CCN(C)C(=O)c2cnc(C)cn2)cc1OC
> 44.6 | CC1(c2ccc3ccccc3c2)NC(=O)N(CC(N)=O)C1=O (stereo not given)
0.6 (≈ 1.82 µM) | Cc1nc2ccc([N+](=O)[O-])cc2c(=O)n1Cc1ccc(Cl)cc1
9.5 (≈ 28.4 µM) | O=S(=O)(Nc1ccc(N2CCCCC2)cc1)c1ccc(F)cc1
> 46.8 | O=C(COc1ccccc1[N+](=O)[O-])N1CCCc2ccccc21
17.7 (≈ 40.5 µM) | O=C(Nc1cc(S(=O)(=O)N2CCCC2)ccc1Cl)c1cc(F)c(F)c(F)c1F
49 (≈ 150 µM) | COC(CNC(=O)c1ccc2nc3ccccc3c(=O)n2c1)OC
43.2 (≈ 137 µM) | CCC(=O)Nc1ccc2c(c1)nc(CCN1CCCCC1)n2C
< 0.6 | CCOC(=O)c1c(C)n(CC)c2c1cc(O)c1ccccc12
3.3 (≈ 10.2 µM) | CC1(C)CC2CC(C)(CN2C(=O)c2cc(-c3ccccc3)on2)C1 (stereo not given)
33.7 (≈ 115 µM) | CCOC(=O)C(=O)c1c(-c2ccccc2)nc2ccccn12
34.4 (≈ 110 µM) | Cc1ccc(-c2noc(CN(C)C(=O)c3ccoc3C)n2)cc1
> 59 | CC(NC(=O)CN1CCN(C(=O)c2cccs2)CC1)c1ccc(F)cc1F (stereo not given)
> 46.7 | N#C/C(=C(/O)CN1CCCC1)c1nc(-c2ccccc2)cs1
> 50 | CC(C)(C)c1ccc(C(=O)NC(=O)CSc2n[nH]c(N)n2)cc1
< 0.7 | C=CCn1c(C)c(C(=O)OCC)c2cc(O)c3ccccc3c21
7.4 (≈ 27.5 µM) | COc1cc2c(C(=O)O)c(C)n(C)c2c2ccccc12
> 43 | CC1CC(C)CN(C(=O)CSc2nnc(N)s2)C1 (stereo not given)
> 41.4 | Cc1ccc2oc(=O)n(CC(=O)N3CCOCC3)c2c1
2.8 (≈ 8.3 µM) | COc1cccc(NCc2cc(=O)oc3cc(C)c(C(C)C)cc23)c1
< 0.7 | CCOC(=O)C1=C(N)Oc2cc(O)ccc2C1c1ccc(F)cc1F (stereo not given)
21.3 (≈ 69.1 µM) | Cc1cccc(NC(=O)CSc2cccc3cccnc23)c1
